Test results: PMC12317126 (Nature Communications, 2025)

Tests used:
[1] = biological target: T1, cystic fibrosis transmembrane conductance regulator (CFTR) (Homo sapiens, UniProt P13569, W401A); experiment: inside-out patch-clamp, inhibition kinetics at […]; type: cell-based
T1 construct: C-terminally GFP-fused CFTR in CHO-K1 cells

[2] = biological target: T2, cystic fibrosis transmembrane conductance regulator (CFTR) (Homo sapiens, UniProt P13569); experiment: ATP hydrolysis of purified CFTR (kcat […] to […] per minute at […]); inside-out patch-clamp; type: biochemical
T2 construct: WT human CFTR, PKA-phosphorylated
T2 sequence (P13569 whole entry): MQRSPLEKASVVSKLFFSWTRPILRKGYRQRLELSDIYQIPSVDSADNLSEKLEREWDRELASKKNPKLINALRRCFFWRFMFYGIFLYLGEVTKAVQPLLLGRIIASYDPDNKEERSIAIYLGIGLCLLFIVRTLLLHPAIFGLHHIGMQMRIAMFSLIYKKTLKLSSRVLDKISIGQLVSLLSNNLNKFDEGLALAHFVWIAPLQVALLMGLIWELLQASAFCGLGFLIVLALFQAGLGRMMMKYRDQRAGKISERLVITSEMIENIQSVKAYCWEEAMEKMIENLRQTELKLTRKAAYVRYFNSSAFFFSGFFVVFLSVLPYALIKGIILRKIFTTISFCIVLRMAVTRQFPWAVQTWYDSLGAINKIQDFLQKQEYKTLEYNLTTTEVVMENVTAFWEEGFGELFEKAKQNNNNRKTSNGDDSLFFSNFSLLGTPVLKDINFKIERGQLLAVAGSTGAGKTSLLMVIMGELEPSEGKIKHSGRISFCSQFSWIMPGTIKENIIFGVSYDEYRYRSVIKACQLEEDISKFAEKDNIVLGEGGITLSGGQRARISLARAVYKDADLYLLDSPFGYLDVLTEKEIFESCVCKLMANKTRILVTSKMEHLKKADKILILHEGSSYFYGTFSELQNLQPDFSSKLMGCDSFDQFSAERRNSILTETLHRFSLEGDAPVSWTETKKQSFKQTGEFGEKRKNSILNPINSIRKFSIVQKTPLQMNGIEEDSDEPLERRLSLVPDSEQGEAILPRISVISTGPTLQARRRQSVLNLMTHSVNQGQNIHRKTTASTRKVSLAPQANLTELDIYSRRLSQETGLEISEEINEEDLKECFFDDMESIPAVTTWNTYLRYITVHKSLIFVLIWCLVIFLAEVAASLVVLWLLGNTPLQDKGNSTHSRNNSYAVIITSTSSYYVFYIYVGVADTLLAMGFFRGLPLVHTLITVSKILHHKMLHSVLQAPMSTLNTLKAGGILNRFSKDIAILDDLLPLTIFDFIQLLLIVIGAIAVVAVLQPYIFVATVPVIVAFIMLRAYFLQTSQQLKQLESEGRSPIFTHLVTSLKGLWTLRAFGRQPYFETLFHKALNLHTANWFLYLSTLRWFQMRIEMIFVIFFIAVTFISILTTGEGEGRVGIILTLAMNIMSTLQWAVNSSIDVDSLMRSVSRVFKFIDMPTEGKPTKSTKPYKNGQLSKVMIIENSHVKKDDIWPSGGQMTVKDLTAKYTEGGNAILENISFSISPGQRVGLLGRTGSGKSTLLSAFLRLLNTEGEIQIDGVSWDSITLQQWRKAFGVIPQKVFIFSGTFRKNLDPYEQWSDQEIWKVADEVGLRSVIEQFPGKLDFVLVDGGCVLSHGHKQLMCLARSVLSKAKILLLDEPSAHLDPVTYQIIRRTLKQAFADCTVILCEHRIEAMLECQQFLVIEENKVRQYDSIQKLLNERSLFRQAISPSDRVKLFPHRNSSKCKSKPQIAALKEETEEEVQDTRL

T1 sequence (P13569 whole entry W401A, the tested form may be a part): as the sequence (P13569 whole entry) above, with W401A counted along it

Row | inhibition at 10 µM [2] | Compound | inside-out patch-clamp, inhibition kinetics at 10 μM [1]
1 |  | Cn1c(=O)c2c(-c3ccccc3)n3c(c2n(C)c1=O)[C@H](c1ccc(Br)o1)Oc1ccc(C(=O)O)cc1-3 [(R)-BPO-27] | 4.5 ± 0.8 s (t1/2 of inhibition at 10 µM)
2 | 72% | O=C(O)c1ccc(/C=C2\SC(=S)N(c3cccc(C(F)(F)F)c3)C2=O)cc1 [CFTRinh-172] | 
